# Data from patent publication US12428427B2, “Methods and compositions for targeting PD-L1” (Aligos Therapeutics, Inc., priority 2021, dated 2025).
# What was measured:
# PDL1/PD1 = PDL1/PD1 (Homo sapiens, UniProt Q9NZQ7); test: PDL1/PD1 Binding Assay; conditions: PDL1-6×His 0.3 nM, PD1-Fc-Avi-Biotin 2.5 nM, Acceptor/Donor beads; read-out: PD-1/PD-L1 PPI IC50
# Procedure: Compounds to be tested were serially diluted in DMSO, and further diluted in assay buffer (25 mM Hepes pH 7.4, 150 mM NaCl, 0.005% Tween 20, BSA 0.01%). Diluted compounds were added to the wells with final concentration of DMSO at 1%. PDL1-6×His protein was added to the wells, mixed well with compound. The plates were incubated for 30 min at room temperature. PD1-Fc-Avi-Biotin protein was added to the wells. Final concentration of PDL1 and PD1 protein is 0.3 nM and 2.5 nM, respectively. After a binding time of 30 min at room temperature, Anti-6×His Acceptor beads (final concentration 20 ug/ml) were added to the wells, and the incubation continued for 1 h. Streptavidin Donor beads (final concentration 20 ug/mL) were added at reduced light. The plates were sealed with foil and incubated in the dark for additional 1 h or overnight before reading on an Envision reader. The IC50 values were determined by fitting the curves using a four-parameter equation in Graphpad Prism 8.
# PD-1/PD-L1 interaction = target: T1, PD-1/PD-L1 interaction (Homo sapiens, UniProt Q9NZQ7); test: PD-1/PD-L1 NFAT Reporter Assay; assay type: cell-based; conditions: co-culture of PD-L1 expressing CHO cells and PD-1 overexpressing Jurkat cells, 6 hrs, NFAT luciferase
# T1 construct: expressed in transfected cells; Jurkat cells (PD-1 plus NFAT-luciferase)
# Procedure: Blocking the PD-1/PD-L1 interaction will release the inhibitory signal and results in TCR signaling and NFAT-mediated luciferase activity.
# CHO cells expressing surface-bound anti-CD3 antibodies and PD-L1 were first seeded overnight and treated with the compounds. Jurkat cells overexpressing PD-1 and a luciferase construct under NFAT promoter were then immediately seeded on the monolayer of CHO cells. The co-culture was then incubated for 6 hrs at 37° C. Luciferase activity was assessed by adding the ONE-Glo reagent and measuring luminescence with a plate reader. EC50 values were determined from the fit of the dose-response curves.
# PDL1/PD1, sequence (Q9NZQ7 19-238 limits assumed): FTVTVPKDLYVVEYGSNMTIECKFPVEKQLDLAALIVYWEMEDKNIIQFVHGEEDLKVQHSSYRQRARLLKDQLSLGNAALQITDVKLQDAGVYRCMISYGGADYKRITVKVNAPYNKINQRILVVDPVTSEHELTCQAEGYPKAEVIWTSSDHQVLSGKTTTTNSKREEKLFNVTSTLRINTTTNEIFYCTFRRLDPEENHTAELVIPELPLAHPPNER
# T1 sequence (Q9NZQ7 19-290): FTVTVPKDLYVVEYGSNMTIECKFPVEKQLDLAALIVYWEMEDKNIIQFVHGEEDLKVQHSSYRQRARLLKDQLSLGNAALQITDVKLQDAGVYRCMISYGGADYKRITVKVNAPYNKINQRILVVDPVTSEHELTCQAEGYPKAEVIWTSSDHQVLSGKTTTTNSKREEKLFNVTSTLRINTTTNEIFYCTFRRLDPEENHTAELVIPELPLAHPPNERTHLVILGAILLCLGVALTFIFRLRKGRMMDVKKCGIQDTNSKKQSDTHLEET
Compound,IC50 (PDL1/PD1),EC50 (PD-1/PD-L1 interaction)
COc1nc(-c2cccc(-c3cccc(NC(=O)c4ccnn(C)c4=O)c3Cl)c2Cl)ccc1CN[C@@H]1CN(C(C)=O)C[C@H]1O [Compound C-49],≤ 10 nM,10 to 100 nM
COc1nc(-c2cccc(-c3cccc(NC(=O)c4ccnn(C)c4=O)c3C)c2Cl)cc(C)c1CNC[C@@H]1CCC(=O)N1 [Compound B-7],≤ 10 nM,≤ 10 nM
COc1nc(-c2cccc(-c3cccc(NC(=O)c4ccnn(C)c4=O)c3Cl)c2Cl)ccc1CN1CCO[C@H](C(=O)O)C1 [Compound C-44],≤ 10 nM,10 to 100 nM
COc1nc(-c2cccc(-c3cccc(NC(=O)c4ccnn(C)c4=O)c3Cl)c2Cl)ccc1CN[C@@H](CO)C(=O)O [Compound C-47],≤ 10 nM,10 to 100 nM
COc1nc(-c2cccc(-c3cccc(NC(=O)c4ccnn(C)c4=O)c3Cl)c2Cl)ccc1CN1CCC[C@H]1CC(=O)O [Compound C-34],≤ 10 nM,10 to 100 nM
COc1nc(-c2cccc(-c3cccc(NC(=O)c4cc(C)n[nH]c4=O)c3Cl)c2Cl)cnc1CN1CC2(CCC(=O)N2)C1 [Compound A-4],≤ 10 nM,100 to 1000 nM
COc1nc(-c2cccc(-c3cccc(NC(=O)c4ccnn(C)c4=O)c3C)c2Cl)ccc1CN1CC[C@H](C(=O)O)C1 [Compound C-56],≤ 10 nM,10 to 100 nM
COc1nc(-c2cccc(-c3cccc(NC(=O)c4ccnn(C)c4=O)c3C)c2Cl)ccc1CN1CC[C@@H](O)C1 [Compound C-67],≤ 10 nM,≤ 10 nM
COc1nc(-c2cccc(-c3cccc(NC(=O)c4ccnn(C)c4=O)c3Cl)c2Cl)ccc1CN1CC(F)(C(=O)O)C1 [Compound C-19],≤ 10 nM,10 to 100 nM
COc1nc(-c2cccc(-c3cccc(NC(=O)c4ccnn(C)c4=O)c3Cl)c2Cl)ccc1CN1CCC[C@@H]1CC(=O)O [Compound C-33],≤ 10 nM,10 to 100 nM
CCOC(=O)[C@H]1CCN(Cc2ccc(-c3cccc(-c4cccc(NC(=O)c5ccnn(C)c5=O)c4Cl)c3Cl)nc2OC)C1 [Compound C-15],10 to 100 nM,10 to 100 nM
CCOC(=O)C1CN(Cc2cnc(-c3cccc(-c4cccc(NC(=O)c5ccnn(C)c5=O)c4Cl)c3Cl)nc2OC)C1 [Compound C-79],≤ 10 nM,10 to 100 nM
COc1nc(-c2cccc(-c3cccc(NC(=O)c4cc(Cl)n[nH]c4=O)c3Cl)c2Cl)cnc1CN1CC2(CCC(=O)N2)C1 [Compound A-3],≤ 10 nM,100 to 1000 nM
COc1nc(-c2cccc(-c3cccc(NC(=O)c4ccnn(C)c4=O)c3Cl)c2Cl)cc(C)c1CN1CC(C(=O)O)C1 [Compound C-88],≤ 10 nM,10 to 100 nM
COc1nc(-c2cccc(-c3cccc(NC(=O)c4ccnn(C)c4=O)c3C)c2Cl)cc(C)c1CN1CC(C(=O)O)C1 [Compound C-91],≤ 10 nM,10 to 100 nM
COc1nc(-c2cccc(-c3cccc(NC(=O)c4ccnn(C)c4=O)c3Cl)c2Cl)c(F)cc1CN1CC(C(=O)O)C1 [Compound C-76],≤ 10 nM,10 to 100 nM
COc1nc(-c2cccc(-c3cccc(NC(=O)c4ccnn(C)c4=O)c3Cl)c2Cl)ccc1CNCC(C)(C)O [Compound C-5],≤ 10 nM,10 to 100 nM
CCOC(=O)C1CN(Cc2c(C)cc(-c3cccc(-c4cccc(NC(=O)c5ccnn(C)c5=O)c4Cl)c3Cl)nc2OC)C1 [Compound C-89],≤ 10 nM,10 to 100 nM
CCOC(=O)C1CN(Cc2cc(F)c(-c3cccc(-c4cccc(NC(=O)c5ccnn(C)c5=O)c4Cl)c3Cl)nc2OC)C1 [Compound C-77],≤ 10 nM,10 to 100 nM
COc1nc(-c2cccc(-c3cccc(NC(=O)c4ccnn(C)c4=O)c3C)c2Cl)ccc1CN1CC(NC(C)=O)C1 [Compound C-63],≤ 10 nM,10 to 100 nM
COC(=O)C1CN(Cc2cc(F)c(-c3cccc(-c4cccc(NC(=O)c5ccnn(C)c5=O)c4Cl)c3Cl)nc2OC)C1 [Compound C-78],≤ 10 nM,100 to 1000 nM

Compound,IC50 (PDL1/PD1),EC50 (PD-1/PD-L1 interaction)
CCOC(=O)C1(C)CN(Cc2ccc(-c3cccc(-c4cccc(NC(=O)c5ccnn(C)c5=O)c4Cl)c3Cl)nc2OC)C1 [Compound C-21],10 to 100 nM,100 to 1000 nM
COc1nc(-c2cccc(-c3cccc(NC(=O)c4ccnn(C)c4=O)c3Cl)c2Cl)ccc1CN[C@](C)(CO)C(=O)O [Compound C-12],≤ 10 nM,10 to 100 nM
COc1nc(-c2cccc(-c3cccc(NC(=O)c4ccnn(C)c4=O)c3C)c2Cl)cnc1CNC[C@@H]1CCC(=O)N1 [Compound B-5],≤ 10 nM,100 to 1000 nM
COc1nc(-c2cccc(-c3cccc(NC(=O)c4ccnn(C)c4=O)c3Cl)c2Cl)ccc1CN1CC(O)C1 [Compound C-7],≤ 10 nM,≤ 10 nM
CCOC(=O)C1CN(Cc2ccc(-c3cccc(-c4cccc(NC(=O)c5ccnn(C)c5=O)c4Cl)c3Cl)nc2OC)C1 [Compound C-13],≤ 10 nM,10 to 100 nM
COc1nc(-c2cccc(-c3cccc(NC(=O)c4ccnn(C)c4=O)c3Cl)c2Cl)ccc1CN1CCCC[C@@H]1C(=O)O [Compound C-11],≤ 10 nM,100 to 1000 nM
COc1nc(-c2cccc(-c3cccc(NC(=O)c4ccnn(C)c4=O)c3Cl)c2Cl)ccc1CNCCO [Compound C-2],≤ 10 nM,10 to 100 nM
COc1nc(-c2cccc(-c3cccc(NC(=O)c4ccnn(C)c4=O)c3Cl)c2Cl)ccc1CNC[C@H](O)C(=O)O [Compound C-38],≤ 10 nM,10 to 100 nM
COc1nc(-c2cccc(-c3cccc(NC(=O)c4ccnn(C)c4=O)c3Cl)c2Cl)ccc1CN[C@H]1CCC[C@H]1C(=O)O [Compound C-40],≤ 10 nM,100 to 1000 nM
COc1nc(-c2cccc(-c3cccc(NC(=O)c4ccnn(C)c4=O)c3C)c2Cl)ccc1CN1CC[C@H](O)C1 [Compound C-65],≤ 10 nM,≤ 10 nM
COc1nc(-c2cccc(-c3cccc(NC(=O)c4ccnn(C)c4=O)c3Cl)c2Cl)ncc1CN1CC(O)C1 [Compound C-82],≤ 10 nM,10 to 100 nM
COc1nc(-c2cccc(-c3cccc(NC(=O)c4ccnn(C)c4=O)c3Cl)c2Cl)cc(C)c1CNC[C@@H]1CCC(=O)N1 [Compound B-3],≤ 10 nM,≤ 10 nM
COc1nc(-c2cccc(-c3cccc(NC(=O)c4ccnn(C)c4=O)c3Cl)c2Cl)ccc1CN1CCN(C(=O)OC(C)(C)C)[C@@H](C(=O)O)C1 [Compound C-24],≤ 10 nM,100 to 1000 nM
COC(=O)C1(F)CN(Cc2ccc(-c3cccc(-c4cccc(NC(=O)c5ccnn(C)c5=O)c4C)c3Cl)nc2OC)C1 [Compound C-61],≤ 10 nM,10 to 100 nM
COc1nc(-c2cccc(-c3cccc(NC(=O)c4ccnn(C)c4=O)c3Cl)c2Cl)ccc1CN1CC(OC)C1 [Compound C-8],≤ 10 nM,10 to 100 nM
COc1nc(-c2cccc(-c3cccc(NC(=O)c4ccnn(C)c4=O)c3Cl)c2Cl)ccc1CNC[C@@H](C)C(=O)O [Compound C-37],≤ 10 nM,10 to 100 nM
CCOC(=O)N(Cc1ncc(-c2cccc(-c3cccc(NC(=O)c4ccnn(C)c4=O)c3C)c2Cl)nc1OC)C[C@@H]1CCC(=O)N1 [Compound D-2],10 to 100 nM,> 5000 nM
COc1nc(-c2cccc(-c3cccc(NC(=O)c4ccnn(C)c4=O)c3C)c2Cl)ccc1CN1CC(C)(C(=O)O)C1 [Compound C-60],≤ 10 nM,10 to 100 nM
COc1nc(-c2cccc(-c3cccc(NC(=O)c4ccnn(C)c4=O)c3Cl)c2Cl)ccc1CNC[C@@H]1CCC(=O)N1 [Compound B-2],≤ 10 nM,10 to 100 nM
CCOC(=O)C1CN(Cc2c(C)cc(-c3cccc(-c4cccc(NC(=O)c5ccnn(C)c5=O)c4C)c3Cl)nc2OC)C1 [Compound C-90],≤ 10 nM,10 to 100 nM
